Measurements: the NIST ThermoML archive (doi:10.1016/j.jct.2015.05.024)

Experiment: xn = mol fraction of the nth substance listed
Conditions: 100 kPa, Liquid; for speed of sound: Frequency=5 MHz, Pulse-echo method; for mass density: Vibrating tube method

OCCOCCOCCO [triethylene glycol] + O
Conditions	mass density [kg/m3]	speed of sound [m/s]
293.15 K, x1 = 0.0107	1010.53	–
293.15 K, x1 = 0.02047	1020.73	–
293.15 K, x1 = 0.03972	1038.14	–
293.15 K, x1 = 0.04979	1045.97	–
293.15 K, x1 = 0.06996	1059.39	–
293.15 K, x1 = 0.09424	1072.14	–
293.15 K, x1 = 0.1481	1091	–
293.15 K, x1 = 0.1752	–	1744.6
293.15 K, x1 = 0.1869	–	1743.5
293.15 K, x1 = 0.2006	1101.53	–
293.15 K, x1 = 0.2052	–	1740.7
293.15 K, x1 = 0.2239	–	1736.8
293.15 K, x1 = 0.2502	1107.61	–
293.15 K, x1 = 0.2513	–	1730.1
293.15 K, x1 = 0.2755	–	1723.7
293.15 K, x1 = 0.2988	1111.51	–
293.15 K, x1 = 0.3023	–	1716.7
293.15 K, x1 = 0.3492	1114.3	–
293.15 K, x1 = 0.3754	–	1699
293.15 K, x1 = 0.3925	1116.06	–
293.15 K, x1 = 0.4338	–	1686.6
293.15 K, x1 = 0.4502	1117.81	–
293.15 K, x1 = 0.4877	1118.7	–
293.15 K, x1 = 0.5004	1118.97	–
293.15 K, x1 = 0.5151	–	1671.3
293.15 K, x1 = 0.5739	1120.23	–
293.15 K, x1 = 0.58	1120.32	–
293.15 K, x1 = 0.6233	–	1654.9
293.15 K, x1 = 0.6465	1121.14	–
293.15 K, x1 = 0.651	1121.19	–
293.15 K, x1 = 0.7008	1121.67	–
293.15 K, x1 = 0.7471	1122.06	–
293.15 K, x1 = 0.7677	1122.21	–
293.15 K, x1 = 0.7815	–	1641.2
293.15 K, x1 = 0.82	1122.57	–
293.15 K, x1 = 0.8623	1122.83	–
293.15 K, x1 = 0.8792	1122.93	–
293.15 K, x1 = 0.8924	–	1634.7
293.15 K, x1 = 0.8975	1123.03	–
293.15 K, x1 = 0.9203	1123.15	–
293.15 K, x1 = 0.9514	1123.32	–
293.15 K, x1 = 0.9634	–	1630.2
293.15 K, x1 = 0.9692	1123.41	–
293.15 K, x1 = 1	1123.56	1629
298.15 K, x1 = 0.000655	–	1499.7
298.15 K, x1 = 0.003093	–	1510.2
298.15 K, x1 = 0.008719	–	1533.1
298.15 K, x1 = 0.01513	–	1557
298.15 K, x1 = 0.02053	–	1575.4
298.15 K, x1 = 0.0297	–	1603.3
298.15 K, x1 = 0.03817	–	1625.7
298.15 K, x1 = 0.04526	–	1642.1
298.15 K, x1 = 0.05106	–	1654.1
298.15 K, x1 = 0.05839	–	1667.6
298.15 K, x1 = 0.0674	–	1681.9
298.15 K, x1 = 0.0766	–	1694.1
298.15 K, x1 = 0.08268	–	1701
298.15 K, x1 = 0.08879	–	1707
298.15 K, x1 = 0.09568	–	1712.9
298.15 K, x1 = 0.1024	–	1717.7
298.15 K, x1 = 0.1041	–	1718.8
298.15 K, x1 = 0.1099	–	1722.2
298.15 K, x1 = 0.1152	–	1724.8
298.15 K, x1 = 0.1205	–	1727
298.15 K, x1 = 0.127	–	1729.3
298.15 K, x1 = 0.1291	–	1729.9
298.15 K, x1 = 0.1383	–	1731.9
298.15 K, x1 = 0.1474	–	1733.1
298.15 K, x1 = 0.1587	–	1733.7
298.15 K, x1 = 0.1675	–	1733.4
298.15 K, x1 = 0.1757	–	1732.8
298.15 K, x1 = 0.1834	–	1731.9
298.15 K, x1 = 0.2026	–	1728.7
298.15 K, x1 = 0.221	–	1724.7
298.15 K, x1 = 0.2393	–	1720.1
298.15 K, x1 = 0.2566	–	1715.5
298.15 K, x1 = 0.2906	–	1706.3
298.15 K, x1 = 0.3533	–	1690.5
298.15 K, x1 = 0.427	–	1674.4
298.15 K, x1 = 0.5126	–	1658.3
